Test [1] can be described thus: Formation of lipid hydroperoxides in antioxidant-treated crackers during storage. As to the method: (§1) Based on the concentrations of the individual AR stock solutions previously determined, an appropriate volume, containing 153 μmol of the respective individual AR homologue, was measured into plastic centrifuge tubes to prepare individual AR homologue treatments. A treatment containing a mixture of the individual AR homologues, at their natural abundance in rye bran, was prepared by combining 25.3% of C17:0, 32.0% of C19:0, 22.6% of C21:0, 12.5% of C23:0, and 7.6% of C25:0. The same procedure was carried out with 10 mM stock solutions of orcinol, α-tocopherol, and butylated hydroxytoluene (BHT) and all treatments were dried under a stream of nitrogen. Ethanol (1.0 mL) was added to the dried treatments (and a control treatment containing no antioxidant) and mixed with 10 g of melted ISO. The antioxidant activity of each treatment was tested at 153 μmol because this corresponds to 500 ppm of C21:0 in the final cracker which is a typical antioxidant concentration used in bakery applications.
(§2) Antioxidant-treated ISO was melted at 90° C. for 10 minutes and mixed in a stand mixer (KSM95, KitchenAid, Benton Harbor, Mich., U.S.) using a beater blade for 1 minute (speed 2). Sifted flour, salt, and baking soda were added and mixed using a beater blade for 1 minute (speed 2). Water was added and mixed using a dough hook for 1 minute (speed 2). The additional flour was sprinkled onto the surface of a baking mat and incorporated into the dough by kneading by hand (30 folds). The dough was flattened by passing it through a pasta roller (KPSA, KitchenAid, Benton Harbor, Mich., U.S.) twice (thickness setting 2). The sheeted dough was cut into 2.5 cm×2.5 cm crackers and baked on an ungreased baking sheet for 9 minutes at 163° C. (FD 53-UL, Binder, Tuttlingen, Germany). After cooling to room temperature, crackers were coarsely crumbled using a mortar and pestle and weighed (0.5 g) into 10 mL amber glass headspace vials (Supelco Analytical, Bellefonte, Pa., U.S.), sealed with stainless steel screw caps with PTFE/silicone septa (Supelco Analytical, Bellefonte, Pa., U.S.), and allowed to autoxidize at 55° C. in the absence of light for up to 160 days. Crackers were analyzed for lipid hydroperoxides, headspace hexanal, and AR loss every 5 days for day 0-50, every 10 days for day 51-100, and every 20 days for the remainder of the storage time.
Lipid hydroperoxides were determined according to the method described by Shantha & Decker (1994) with slight modifications. Cracker samples (0.1 g) were finely ground using a mortar and pestle and mixed with 5.0 mL chloroform/methanol (2:1 (v/v)) by vortexing (10 seconds, 3 times). The hydroperoxide-containing lipid fraction was extracted and isolated by centrifugation at 2500×g for 10 minutes (Centrifuge 5702, A-4-38 Rotor, Eppendorf, Hamburg, Germany). To this extract (1.0 mL), 16.7 μL of an iron chloride solution (prepared by mixing 50 mL 66 mM FeSO4 in water with 50 mL 38 mM BaCl2 in 0.4 N HCl) was added followed by 16.7 μL of ammonium thiocyanate (3.9 M in water), and allowed to react at room temperature for 20 minutes. The absorbance of the samples was measured at 500 nm (GENESYS 180 UV-Vis Spectrophotometer, Thermo Fisher Scientific, Waltham, Mass., U.S.) and lipid hydroperoxides were quantified based on a standard curve prepared using cumene hydroperoxide.
Individual AR homologues (C17:0, C19:0, C21:0, C23:0, C25:0) were added separately and as a mixture (AR Mix) to ISO and subsequently incorporated into the cracker samples. The antioxidant activities of the AR homologues in crackers were compared to orcinol (a water-soluble AR), conventional antioxidants (i.e., α-tocopherol, BHT), and a control treatment (i.e., no added antioxidant). The crackers were allowed to autoxidize in the absence of light and primary (i.e., lipid hydroperoxides) and secondary products (i.e., headspace hexanal) of lipid oxidation were measured as a function of time.

A short description of test [2]: Formation of headspace hexanal in antioxidant-treated crackers during storage. As for the experimental part:
as §1, §2
Cracker samples were prepared for GC-MS analysis by adding 10 μL of 100 mg/L 2-methypentanal (internal standard) in methanol directly through the capped headspace vial's septum. The GC system consisted of a 7890B gas chromatograph (Agilent, Santa Clara, Calif., U.S.) with sample introduction by means of an autosampler (Robotic MultiPurpose Sampler, Gerstel, Mülheim, Germany). Samples were equilibrated for 10 minutes at 55° C. with continuous shaking. A 50/30 μm divinylbenzene/carboxen/polydimethylsiloxane (DVB/CAR/PDMS) (1 cm) (Supelco Analytical, Bellefonte, Pa., U.S.) solid phase microextraction (SPME) fiber was exposed to the sample headspace for 2 minutes at 55° C. The SPME fiber was desorbed for 6 minutes at 250° C. in the injection port equipped with a SPME inlet liner at a split ratio of 10:1. Volatile aldehydes were separated on a Rtx-WAX capillary column (30 m, 0.25 mm i.d., 0.25 μm film thickness) (Restek, Bellefonte, Pa., U.S.). An oven program was followed to separate the different volatile aldehydes at a constant helium carrier gas flow rate of 1.22 mL/min. The oven program was as follows: hold at 40° C. for 1 minute; ramp at 10° C./min to 75° C.; ramp at 100° C./min to 250° C.; hold at 250° C. for 1.75 minutes. Detection and quantification of hexanal and 2-methylpentanal was achieved using a single quadrupole mass spectrometer (5977B, Agilent, Santa Clara, Calif., U.S.) coupled to the GC. The MS transfer line, quadrupole, and detector temperatures were set to 250° C., 230° C., 150° C., respectively. Mass spectra were collected in electron impact mode.

Test [3] in a line: Antioxidant activity in the low-moisture model cracker system (overall lipid oxidation study). Particulars: 153 μmol antioxidant. As to the method: Based on the concentrations of the individual AR stock solutions previously determined, an appropriate volume, containing 153 μmol of the respective individual AR homologue, was measured into plastic centrifuge tubes to prepare individual AR homologue treatments. […] The same procedure was carried out with 10 mM stock solutions of orcinol, α-tocopherol, and butylated hydroxytoluene (BHT) and all treatments were dried under a stream of nitrogen. Ethanol (1.0 mL) was added to the dried treatments (and a control treatment containing no antioxidant) and mixed with 10 g of melted ISO. […] Antioxidant-treated ISO was melted at 90° C. for 10 minutes and mixed in a stand mixer (KSM95, KitchenAid, Benton Harbor, Mich., U.S.) using a beater blade for 1 minute (speed 2). […] flour, salt, and baking soda were added and mixed using a beater blade for 1 minute (speed 2). Water was added and mixed using a dough hook for 1 minute (speed 2). The additional flour was sprinkled onto the surface of a baking mat and incorporated into the dough by kneading by hand (30 folds). The dough was flattened by passing it through a pasta roller (KPSA, KitchenAid, Benton Harbor, Mich., U.S.) twice (thickness setting 2). The sheeted dough was cut into 2.5 cm×2.5 cm crackers and baked on an ungreased baking sheet for 9 minutes at 163° C. (FD 53-UL, Binder, Tuttlingen, Germany). […] Individual AR homologues (C17:0, C19:0, C21:0, C23:0, C25:0) were added separately and as a mixture (AR Mix) to ISO and subsequently incorporated into the cracker samples. The antioxidant activities of the AR homologues in crackers were compared to orcinol (a water-soluble AR), conventional antioxidants (i.e., α-tocopherol, BHT), and a control treatment (i.e., no added antioxidant). The crackers were allowed to autoxidize in the absence of light and primary (i.e., lipid hydroperoxides) and secondary products (i.e., headspace hexanal) of lipid oxidation were measured as a function of time.

For test [4] the following is noted: oxygen radical absorbance capacity assay, earlier work of the Inventors; cited from earlier work.

In the case of `Cc1cc(O)cc(O)c1` [orcinol], in test [1] (153 μmol antioxidant in crackers, 55° C., FIG. 1), the “course of lipid hydroperoxide formation after the lag phase (in words)” value is “oxidizing most rapidly”. Moreover, the “storage day at which lipid hydroperoxide concentration began to increase (end of lag phase)” value in test [1] (153 μmol antioxidant in crackers, autoxidized at 55° C. in the absence of light, FIG. 1) is 25 days. In addition, in test [1] (time to reach threshold [Hydroperoxides]=0.1 mM/g cracker, FIG. 3A), the “order of induction periods for lipid hydroperoxides” value is recorded as “AR Mix≈C23:0>C25:0>(C21:0≈C19:0)>(C19:0≈BHT)>(BHT≈orcinol)>(orcinol≈C17:0)>control>>α-tocopherol”. The “activity concluded from headspace hexanal formation” value in test [2] (153 μmol antioxidant in crackers, 55° C., compared to control crackers) was “neither prooxidant or antioxidant activity”. The “storage day at which headspace hexanal began to increase (end of lag phase)” value in test [2] (153 μmol antioxidant in crackers, autoxidized at 55° C. in the absence of light, FIG. 2) is above 35 days. In addition, the “order of induction periods for headspace hexanal” value in test [2] (time to reach threshold [Hexanal]=1.0 mM/g cracker, FIG. 3B) is given as “C23:0>BHT>C25:0 AR Mix>C21:0>C19:0≈C17:0>control≈orcinol>>α-tocopherol”. For the same molecule, the “antioxidant activity in the low-moisture model cracker system (in words)” value in test [3] is reported as “weak to no antioxidant activity”. Further, the radical scavenging capacity result in test [4] is “strongest antiradical activity”.

The values above are taken from US20230079687A1, “ALKYLRESORCINOL HOMOLOGUES AS ANTIOXIDANTS” (The Penn State Research Foundation, priority 2021, published 2023).
